From article PMC6002838 (The Journal of antibiotics, 2017)
≈ marks a conversion by molar mass, not a printed value.

Key:
[1] = target: MDM2-p53 complex (Homo sapiens, UniProt Q00987); test: MDM2-p53 complex inhibition assay; format: binding; conditions: for inhibition at 100 µM: read-out: Inhibition of MDM2-p53 complex formation (pre-treat)
[2] = system: KSHV LANA latency antigen; format: cell-based, Kaposi Sarcoma Herpesvirus (KSHV); conditions: 100 μM, 6 days, BC3 cells, flow cytofluorometry
[3] = Cytotoxicity on HUVEC cells; format: cell-based; conditions: human, HUVEC cells (primary human umbilical cord endothelial cells)
[4] = Cytotoxicity on THP-1 cells; format: cell-based; conditions: human, THP-1 cells (KSHV-negative macrophage cell line)
[5] = Cytotoxicity on BC3 cells; format: cell-based; conditions: human
[6] = system: latent KSHV DNA in BC3 cells; test: qPCR detection of latent KSHV DNA; format: cell-based, Kaposi Sarcoma Herpesvirus (KSHV)

Sequence of MDM2-p53 complex (Q00987 whole entry, one chain of several): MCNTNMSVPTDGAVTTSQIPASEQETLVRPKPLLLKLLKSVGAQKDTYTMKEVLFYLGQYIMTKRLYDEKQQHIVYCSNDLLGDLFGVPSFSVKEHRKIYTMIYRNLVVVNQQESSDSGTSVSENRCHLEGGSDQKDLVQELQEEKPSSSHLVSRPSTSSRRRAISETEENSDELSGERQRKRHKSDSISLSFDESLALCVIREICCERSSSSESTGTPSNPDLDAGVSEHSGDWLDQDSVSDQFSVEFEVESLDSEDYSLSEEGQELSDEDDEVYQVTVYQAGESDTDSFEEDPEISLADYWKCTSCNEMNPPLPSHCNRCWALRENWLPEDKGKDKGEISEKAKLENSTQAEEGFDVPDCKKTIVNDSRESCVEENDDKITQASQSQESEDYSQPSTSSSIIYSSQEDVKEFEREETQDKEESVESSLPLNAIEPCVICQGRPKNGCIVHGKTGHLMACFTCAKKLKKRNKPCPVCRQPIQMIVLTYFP

Structure (SMILES)	inhibition at 100 µM [1] [%]	LANA inhibition [2] [%]	Residual fluorescence (RF) [2]	CC50 at 6 days [3] [µg/mL]	CC50 at 6 days [4] [µg/mL]	CC50 at 6 days [5] [µg/mL]	SI (CC50/EC50) [6]	Disruption of MDM2-p53 complex (post-treat) ([1]; 100 μM, compounds added after formation of the complex)
Cc1cc(NS(=O)(=O)c2ccc(N)cc2)no1 [BC6, sulfamethoxazole]	50	–	–	–	–	–	–	–
CS(=O)(=O)Nc1ccc([N+](=O)[O-])cc1Oc1ccccc1 [Nimesulide, nimesulide]	–	54±5	about 46%	–	–	–	–	–
Nc1ccc(S(N)(=O)=O)cc1 [SA4, sulfanilamide]	56	78±6	21%	–	–	–	–	–
[H]/N=C(/N)NS(=O)(=O)c1ccc(N)cc1 [SG3, sulfaguanidine]	~48	–	–	500 ± 125 (≈ 2330 µM)	125 ± 31 (≈ 583 µM)	100 ± 25 (≈ 467 µM)	4.76	–
Nc1ccc(S(=O)(=O)Nc2nccs2)cc1 [ST5, sulfathiazole]	~70	–	–	250 ± 62 (≈ 979 µM)	30 ± 15 (≈ 117 µM)	100 ± 25 (≈ 392 µM)	16.6	about 48%
